Experiments:
[1] = test system: SK-Br3 cells; assay: Breast cancer growth inhibitory activity (Cell-titer Glo, 72 h); assay type: cell-based; conditions: Homo sapiens, SK-BR-3; 72 hours; read-out: SK-Br3 (GI50/μM)
Description: (§1) Breast cancer cells in a culture solution (100 μL volume/well, 2,500 SK-Br3 cells/well, 1,000 HCC-1954 cells/well) were seeded into a tissue culture-treated 96-well plate and cultured in a cell incubator for 24 hours. […] Cell-titer Glo™ reagent (50 μL of a 5-fold diluted solution, Promega) was added to each well, and luminescence signals were measured using an Envision™ plate reader (PerkinElmer, USA). Titration curve fitting and IC50 values were generated using Prism 7.0 s/w (GraphPad, San Diego, USA).

[2] = test system: HCC1954 cells; assay: as above; assay type: cell-based; conditions: Homo sapiens, 72 hours, read-out: HCC1954 (GI50/μM)
Description: as §1

[3] = target: CDK12/CyclinK (Homo sapiens (Human), UniProt Q9NYV4); assay: CDK12/cyclinK enzyme activity; assay type: biochemical; conditions: in vitro
Sequence of CDK12/CyclinK (Q9NYV4 whole entry): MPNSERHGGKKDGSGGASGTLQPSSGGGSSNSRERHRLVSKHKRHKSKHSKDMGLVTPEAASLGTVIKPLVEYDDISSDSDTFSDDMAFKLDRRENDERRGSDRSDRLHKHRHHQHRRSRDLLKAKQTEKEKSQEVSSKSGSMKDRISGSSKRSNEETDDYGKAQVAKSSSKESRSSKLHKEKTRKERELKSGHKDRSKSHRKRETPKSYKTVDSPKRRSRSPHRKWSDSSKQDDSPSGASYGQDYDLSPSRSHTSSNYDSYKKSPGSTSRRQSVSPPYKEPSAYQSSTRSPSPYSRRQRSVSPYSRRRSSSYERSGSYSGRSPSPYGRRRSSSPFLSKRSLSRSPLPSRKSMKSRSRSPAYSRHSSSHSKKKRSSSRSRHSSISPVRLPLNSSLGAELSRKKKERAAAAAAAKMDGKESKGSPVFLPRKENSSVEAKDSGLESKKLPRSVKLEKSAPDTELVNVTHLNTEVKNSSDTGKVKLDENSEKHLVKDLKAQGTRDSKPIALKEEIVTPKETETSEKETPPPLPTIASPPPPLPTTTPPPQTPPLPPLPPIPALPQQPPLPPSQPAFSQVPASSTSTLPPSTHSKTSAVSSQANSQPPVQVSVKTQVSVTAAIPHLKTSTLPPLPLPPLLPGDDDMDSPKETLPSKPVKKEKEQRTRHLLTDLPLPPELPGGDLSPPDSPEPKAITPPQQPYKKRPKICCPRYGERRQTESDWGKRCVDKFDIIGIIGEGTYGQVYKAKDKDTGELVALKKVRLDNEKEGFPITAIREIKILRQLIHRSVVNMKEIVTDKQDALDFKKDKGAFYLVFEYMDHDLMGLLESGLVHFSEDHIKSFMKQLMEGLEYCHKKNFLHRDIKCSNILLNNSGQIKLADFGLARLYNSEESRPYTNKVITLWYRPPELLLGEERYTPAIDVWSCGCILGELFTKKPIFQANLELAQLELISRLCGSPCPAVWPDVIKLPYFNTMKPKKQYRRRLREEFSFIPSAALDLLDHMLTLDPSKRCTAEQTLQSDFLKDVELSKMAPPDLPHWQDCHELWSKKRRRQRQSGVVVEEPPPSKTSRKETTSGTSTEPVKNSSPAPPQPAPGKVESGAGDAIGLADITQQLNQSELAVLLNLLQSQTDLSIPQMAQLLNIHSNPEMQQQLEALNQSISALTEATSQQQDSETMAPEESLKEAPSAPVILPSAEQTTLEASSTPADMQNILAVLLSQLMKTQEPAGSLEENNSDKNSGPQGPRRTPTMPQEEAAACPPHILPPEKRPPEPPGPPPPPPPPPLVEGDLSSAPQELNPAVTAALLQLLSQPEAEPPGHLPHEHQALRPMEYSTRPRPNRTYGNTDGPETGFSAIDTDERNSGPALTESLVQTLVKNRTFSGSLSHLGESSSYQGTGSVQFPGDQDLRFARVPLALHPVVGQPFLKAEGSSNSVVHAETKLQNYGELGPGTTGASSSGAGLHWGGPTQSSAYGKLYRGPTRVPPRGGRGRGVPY
Sequence of CDK12/CyclinK (O75909 whole entry partner): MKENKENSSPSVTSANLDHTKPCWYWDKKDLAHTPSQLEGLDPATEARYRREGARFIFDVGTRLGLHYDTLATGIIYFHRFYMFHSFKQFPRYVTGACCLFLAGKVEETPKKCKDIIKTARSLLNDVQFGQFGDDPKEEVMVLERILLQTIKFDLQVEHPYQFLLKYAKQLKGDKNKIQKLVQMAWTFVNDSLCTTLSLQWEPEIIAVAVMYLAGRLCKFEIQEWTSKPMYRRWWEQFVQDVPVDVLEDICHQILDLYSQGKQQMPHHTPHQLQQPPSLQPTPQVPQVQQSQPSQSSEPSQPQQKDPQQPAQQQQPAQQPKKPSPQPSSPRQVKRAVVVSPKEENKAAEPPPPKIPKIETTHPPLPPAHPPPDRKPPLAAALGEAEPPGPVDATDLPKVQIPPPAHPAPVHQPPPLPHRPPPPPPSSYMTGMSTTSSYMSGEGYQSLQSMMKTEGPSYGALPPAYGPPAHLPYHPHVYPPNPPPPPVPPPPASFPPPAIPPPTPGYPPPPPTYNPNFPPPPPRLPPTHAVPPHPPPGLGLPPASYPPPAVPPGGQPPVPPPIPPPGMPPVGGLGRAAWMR

With `Cc1ccc(-c2ccc(CNc3nc(-c4cccnc4)nc4c3ncn4C(C)C)nc2)cn1` [Example 3, 9-isopropyl-N-((6′-methyl-[3,3′-bipyridin]-6-yl)methyl)-2-(pyridin-3-yl)-9H-purin-6-amine] the GI50 [1] was 23.1 µM, the GI50 [2] was 13.6 µM and the IC50 [3] was 1.11 µM.

`CC(C)n1cnc2c(NCc3ccc(-c4cccnc4)nc3)nc(-c3cccnc3)nc21` [Example 6, N-([2,3′-bipyridin]-5-ylmethyl)-9-isopropyl-2-(pyridin-3-yl)-9H-purin-6-amine] gave a GI50 [1] of 0.416 µM, a GI50 [2] of 0.248 µM and an IC50 [3] of 0.221 µM.

`CC(C)n1cnc2c(NCc3ccc(-c4ccncc4)nc3)nc(-c3cccnc3)nc21` [Example 7, N-([2,4′-bipyridin]-5-ylmethyl)-9-isopropyl-2-(pyridin-3-yl)-9H-purin-6-amine] gave a GI50 [1] of 0.801 µM, a GI50 [2] of 0.5 µM and an IC50 [3] of 0.153 µM.

Work on `CC(C)n1cnc2c(NCc3ccc(-c4cccnc4)nc3)nc(-c3ccccc3)nc21` [Example 8, N-([2,3′-bipyridin]-5-ylmethyl)-9-isopropyl-2-phenyl-9H-purin-6-amine] yielded a GI50 [1] of 1.68 µM, a GI50 [2] of 1.12 µM and an IC50 [3] of 0.623 µM.

With `CC(C)n1cnc2c(NCc3ccc(-c4cccnc4)nc3)nc(-c3cccc(C(N)=O)c3)nc21` [Example 9, 3-(6-(([2,3′-bipyridin]-5-ylmethyl)amino)-9-isopropyl-9H-purin-2-yl)benzamide] the GI50 [1] was 1.6 µM, the GI50 [2] was 1.12 µM and the IC50 [3] was 0.504 µM.

`CC(C)n1cnc2c(NCc3ccc(-c4cccnc4)nc3)nc(-c3ccc(C(N)=O)cc3)nc21` [Example 10, 4-(6-(([2,3′-bipyridin]-5-ylmethyl)amino)-9-isopropyl-9H-purin-2-yl)benzamide] showed a GI50 [1] of 3.7 µM, a GI50 [2] of 3.14 µM and an IC50 [3] of 0.484 µM.

`CC(C)n1cnc2c(NCc3ccc(-c4cccnc4)nc3)nc(-c3ccc4[nH]ccc4c3)nc21` [Example 11, N-([2,3′-bipyridin]-5-ylmethyl)-2-(1H-indol-5-yl)-9-isopropyl-9H-purin-6-amine] was tested, and the GI50 [1] was 1.5 µM, the GI50 [2] was 1.36 µM and the IC50 [3] was 0.155 µM.

In the case of `CC(C)n1cnc2c(NCc3ccc(-c4cccnc4)nc3)nc(-c3ccc4cn[nH]c4c3)nc21` [Example 13, N-([2,3′-bipyridin]-5-ylmethyl)-2-(1H-indazol-6-yl)-9-isopropyl-9H-purin-6-amine], the GI50 [1] is reported as 0.597 µM, the GI50 [2] is reported as 0.4 µM and the IC50 [3] is reported as 0.179 µM.

Molecule `CC(C)n1cnc2c(NCc3ccc(-c4cccnc4)nc3)nc(-c3ccnc(N)c3)nc21` [Example 19, N-([2,3′-bipyridin]-5-ylmethyl)-2-(2-aminopyridin-4-yl)-9-isopropyl-9H-purin-6-amine] has a GI50 [2] of 0.362 µM and an IC50 [3] of 0.094 µM.

Molecule `CC(C)n1cnc2c(NCc3ccc(-c4cccnc4)nc3)nc(-c3cnc(N)nc3)nc21` [Example 21, N-([2,3′-bipyridin]-5-ylmethyl)-2-(2-aminopyrimidin-5-yl)-9-isopropyl-9H-purin-6-amine] has an IC50 [3] of 0.087 µM.

Molecule `CC(C)n1cnc2c(NCc3ccc(-c4cccnc4)nc3)nc(-c3ccn[nH]3)nc21` [Example 22, N-([2,3′-bipyridin]-5-ylmethyl)-9-isopropyl-2-(1H-pyrazol-5-yl)-9H-purin-6-amine] has a GI50 [1] of 1.72 µM and an IC50 [3] of 0.501 µM.

Molecule `CC(C)n1cnc2c(NCc3ccc(-c4cccnc4)nc3)nc(-c3cn[nH]c3)nc21` [Example 23, N-([2,3′-bipyridin]-5-ylmethyl)-9-isopropyl-2-(1H-pyrazol-4-yl)-9H-purin-6-amine] has a GI50 [1] of 1.99 µM and an IC50 [3] of 1.43 µM.

Molecule `CC(C)n1cnc2c(NCc3ccc(-c4cccnc4)nc3)nc(-c3ccc(N)cc3)nc21` [Example 27, N-([2,3′-bipyridin]-5-ylmethyl)-2-(4-aminophenyl)-9-isopropyl-9H-purin-6-amine] has a GI50 [1] of 0.813 µM and an IC50 [3] of 0.15 µM.

`CC(C)n1cnc2c(NCc3ccc(-c4cccnc4)nc3)nc(-c3ccnc(F)c3)nc21` [Example 29, N-([2,3′-bipyridin]-5-ylmethyl)-2-(2-fluoropyridin-4-yl)-9-isopropyl-9H-purin-6-amine] gave a GI50 [1] of 1.72 µM and an IC50 [3] of 0.164 µM.

With `CC(C)n1cnc2c(NCc3ccc(-c4cccnc4)nc3)nc(-c3cccc(NCCCO)c3)nc21` [Example 33, 3-((3-(6-(([2,3′-bipyridin]-5-ylmethyl)amino)-9-isopropyl-9H-purin-2-yl)phenyl)amino)propan-1-ol] the GI50 [1] was 0.724 µM and the IC50 [3] was 0.257 µM.

In the case of `CC(C)n1cnc2c(NCc3ccc(-c4cccnc4)nc3)nc(-c3ccc(NCCCO)nc3)nc21` [Example 36, 3-((5-(6-(([2,3′-bipyridin]-5-ylmethyl)amino)-9-isopropyl-9H-purin-2-yl)pyridin-2-yl)amino)propan-1-ol], the GI50 [1] is reported as 1.18 µM and the IC50 [3] is reported as 0.304 µM.

Work on `CC(C)n1cnc2c(NCc3ccc(-c4cccnc4)nc3)nc(-c3ccnc(NCCO)c3)nc21` [Example 37, 2-((4-(6-(([2,3′-bipyridin]-5-ylmethyl)amino)-9-isopropyl-9H-purin-2-yl)pyridin-2-yl)amino)ethan-1-ol] yielded a GI50 [1] of 0.47 µM and an IC50 [3] of 0.086 µM.

In the case of `CC(C)n1cnc2c(NCc3ccc(-c4cccnc4)nc3)nc(-c3ccnc(NCCCO)c3)nc21` [Example 38, 3-((4-(6-(([2,3′-bipyridin]-5-ylmethyl)amino)-9-isopropyl-9H-purin-2-yl)pyridin-2-yl)amino)propan-1-ol], the GI50 [1] is reported as 0.479 µM and the IC50 [3] is reported as 0.113 µM.

`COc1cncc(-c2nc(NCc3ccc(-c4ccccn4)cn3)c3ncn(C(C)C)c3n2)c1` [Example 44, N-([2,3′-bipyridin]-6′-ylmethyl)-9-isopropyl-2-(5-methoxypyridin-3-yl)-9H-purin-6-amine] was tested, and the IC50 [3] was 1.53 µM.

For `CC(C)n1cnc2c(NCc3ccc(-c4ccccn4)cn3)nc(-c3ccc(N)nc3)nc21` [Example 45, N-([2,3′-bipyridin]-6′-ylmethyl)-2-(6-aminopyridin-3-yl)-9-isopropyl-9H-purin-6-amine], the GI50 [1] was 0.169 µM and the IC50 [3] was 0.221 µM.

With `CCn1cnc2c(NCc3ccc(-c4cccnc4)nc3)nc(-c3cccnc3)nc21` [Example 46, N-([2,3′-bipyridin]-5-ylmethyl)-9-ethyl-2-(pyridin-3-yl)-9H-purin-6-amine] the GI50 [1] was 0.217 µM and the IC50 [3] was 0.016 µM.

In the case of `c1cncc(-c2ccc(CNc3nc(-c4cccnc4)nc4c3ncn4C3CCOCC3)cn2)c1` [Example 48, N-([2,3′-bipyridin]-5-ylmethyl)-2-(pyridin-3-yl)-9-(tetrahydro-2H-pyran-4-yl)-9H-purin-6-amine], the GI50 [2] is reported as 44.2 µM and the IC50 [3] is reported as over 10 µM.

In the case of `CCn1cnc2c(NCc3ccc(-c4ccnc(C)c4)nc3)nc(-c3ccc4[nH]c(=O)[nH]c4c3)nc21` [Example 52, 5-(9-ethyl-6-(((2′-methyl-[2,4′-bipyridin]-5-yl)methyl)amino)-9H-purin-2-yl)-1,3-dihydro-2H-benzo[d]imidazol-2-one], the GI50 [2] is reported as 0.635 µM.

`CCn1cnc2c(NCc3ccc(-n4nc(C)cc4C)nc3)nc(-c3cnc(N)nc3)nc21` [Example 62, 2-(2-aminopyrimidin-5-yl)-N-((6-(3,5-dimethyl-1H-pyrazol-1-yl)pyridin-3-yl)methyl)-9-ethyl-9H-purin-6-amine] was tested, and the GI50 [1] was 0.066 µM and the GI50 [2] was 0.085 µM.

`CC(C)n1cnc2c(NCc3ccc(-c4cccnc4)nc3)nc(N3CCOC[C@H]3CCO)nc21` [Example 63, (R)-2-(4-(6-(([2,3′-bipyridin]-5-ylmethyl)amino)-9-isopropyl-9H-purin-2-yl)morpholin-3-yl)ethan-1-ol] was tested, and the GI50 [2] was 0.168 µM.

Reference: US20250101023A1, “HETEROARYL DERIVATIVE AND USES THEREOF” (IUCF-HYU (INDUSTRY-UNIVERSITY COOPERATION FOUNDATION …, priority 2022, published 2025)
